In patent EP0372582A2, “6-Aminoalkyl carbapenems” (Bristol-Myers Squibb Company, priority 1988, dated 1990):
Like-named read-outs stand apart in the source and are kept apart here. One block for each compound: values may come before it.

Key:
[1] = Chemical stability in aqueous solution (half-life); format: physicochemical
Method: Chemical stability in aqueous solution at pH 7.4 and pH 2.0 is reported as half-life (t1/2). These values are determined by interpolation from a graph of concentration of test substance remaining in solution after storage under selected conditions for various periods of time.

[2] = Blood concentration parameters after administration to mice; format: in vivo; settings: for U.R.: listed after the PO/50 lines, abbreviation not defined; for AUC / half-life / Cmax: mouse, mice; for half-life: blood half-life
Description: […] "Cmax" is the maximum concentration achieved, "t1/2" is the half-life or time for half of the absorbed material to disappear from the blood stream.

E. coli = test: Protective dose (PD50) in infected animals; format: in vivo, mice; design: unit not given here; settings: PO
Description: (§1) The PD₅₀ values are protective doses, or the dose of test compound which secures survival of 50% of the animals of a test group, usually mice, during a designated period of time after being infected with an inoculum of infectious organism which will result in death of all inoculated untreated animals during that test period.

Str. pneu. A9585 = test: M.I.C., tube dilution method in Nutrient Broth; format: cell-based; settings: unit assumed
Method: (§2) The following procedures illustrate the application of the process of this invention to the preparation of a variety of compounds of Formula V. In many instances, data illustrating the biological activity of the substances as antibiotics are presented. […] It is determined by interpolation from a graph of concentration versus number of cells following exposure of the organism to the test compound under growth conditions. Another parameter such as optical density which is proportional to the cell count may be used. In some instances MIC₉₀ values are also given. The latter refers to 90% growth inhibition.

P. mir. A9900 = test: M.I.C., tube dilution method in Nutrient Broth; format: cell-based; settings: unit assumed
Method: as §2

E. coli A20341 = test: M.I.C., tube dilution method in Nutrient Broth; format: cell-based; settings: unit assumed
Method: as §2

Staph. aur. A9537 = test: M.I.C., tube dilution method in Nutrient Broth; format: cell-based; settings: unit assumed
Method: as §2

K. pneu. A20468 = test: M.I.C., tube dilution method in Nutrient Broth; format: cell-based; settings: unit assumed
Method: as §2

Ps. aeru. A9843 = test: M.I.C., tube dilution method in Nutrient Broth; format: cell-based; settings: unit assumed
Method: as §2

Staph aur. Pen+ = test: M.I.C., tube dilution method in Nutrient Broth; format: cell-based; settings: unit assumed
Method: as §2

Ent. clo. A9656 = test: M.I.C., tube dilution method in Nutrient Broth; format: cell-based; settings: unit assumed
Method: as §2

P. rett. A22424 = test: M.I.C., tube dilution method in Nutrient Broth; format: cell-based; settings: unit assumed
Method: as §2

P. morg. A15153 = test: M.I.C., tube dilution method in Nutrient Broth; format: cell-based; settings: unit assumed
Method: as §2

Ser. mars. A20019 = test: M.I.C., tube dilution method in Nutrient Broth; format: cell-based; settings: unit assumed
Method: as §2

K. pneu. A9664 = test: M.I.C., tube dilution method in Nutrient Broth; format: cell-based; settings: unit assumed
Method: as §2

P. vul. A21559 = test: M.I.C., tube dilution method in Nutrient Broth; format: cell-based; settings: unit assumed
Method: as §2

Staph. serum = test: M.I.C., tube dilution method in Nutrient Broth; format: cell-based; settings: unit assumed
Method: as §2

Ent. clo. A9659 = test: M.I.C., tube dilution method in Nutrient Broth; format: cell-based; settings: unit assumed
Method: as §2

E. coli A15119 = test: M.I.C., tube dilution method in Nutrient Broth; format: cell-based; settings: unit assumed
Method: as §2

Str. faec. A20688 = test: M.I.C., tube dilution method in Nutrient Broth; format: cell-based; settings: unit assumed
Method: as §2

Staph aur. MR = test: M.I.C., tube dilution method in Nutrient Broth; format: cell-based; settings: unit assumed
Method: as §2

Str. pyo. A9604 = test: M.I.C., tube dilution method in Nutrient Broth; format: cell-based; settings: unit assumed
Method: as §2

Ps. aeru. CarbR = test: M.I.C., tube dilution method in Nutrient Broth; format: cell-based; settings: unit assumed
Method: as §2

S. pneu = test: Protective dose (PD50) in infected animals; format: in vivo, mice; design: unit not given beside the values; settings: PO
Description: as §1

[3] = citric acid buffer, pH 2, 37°C, pH 2.0 citric acid buffer, by hplc, read-out: t1/2, pH 2
[4] = phosphate buffer, pH 7.4, 37°C, pH 7.4 phosphate buffer, by uv, read-out: t1/2, pH 7.4 (converted)

Compound: C[C@@H](N)[C@H]1C(=O)N2C(C(=O)O)=C(SCc3cn(C)nn3)[C@H](C)[C@H]12 [Procedure 15]
half-life [1, 3]: 144 min
half-life [1, 4]: 186 min
U.R. [2]: 11
AUC ([2]; in vivo, PO, 50 mg/kg): 25000 ng·h/mL
half-life ([2]; in vivo, PO, 50 mg/kg): 24 min
Cmax ([2]; in vivo, PO, 50 mg/kg, read-out: Cmax, PO/50): 29000 ng/mL
PD50, E. coli (E. coli): 21.80
M.I.C. Str. pneu. A9585 (Str. pneu. A9585): 1 µg/mL
M.I.C. P. mir. A9900 (P. mir. A9900): 0.03 µg/mL
M.I.C. E. coli A20341 (E. coli A20341): 0.03 µg/mL
M.I.C. Staph. aur. A9537 (Staph. aur. A9537): 4 µg/mL
M.I.C. K. pneu. A20468 (K. pneu. A20468): 0.13 µg/mL
M.I.C. Ps. aeru. A9843 (Ps. aeru. A9843): 2 µg/mL
M.I.C. Staph aur. Pen+ (Staph aur. Pen+): 4 µg/mL
M.I.C. Ent. clo. A9656 (Ent. clo. A9656): 0.03 µg/mL
M.I.C. P. rett. A22424 (P. rett. A22424): 4 µg/mL
M.I.C. P. morg. A15153 (P. morg. A15153): 0.13 µg/mL
M.I.C. Ser. mars. A20019 (Ser. mars. A20019): 0.13 µg/mL
M.I.C. K. pneu. A9664 (K. pneu. A9664): 0.13 µg/mL
M.I.C. P. vul. A21559 (P. vul. A21559): 0.06 µg/mL
M.I.C. Staph. serum (Staph. serum): 4 µg/mL
M.I.C. Ent. clo. A9659 (Ent. clo. A9659): 0.13 µg/mL
M.I.C. E. coli A15119 (E. coli A15119): 0.03 µg/mL
M.I.C. Str. faec. A20688 (Str. faec. A20688): 125 µg/mL
M.I.C. Staph aur. MR (Staph aur. MR): 32 µg/mL
M.I.C. Str. pyo. A9604 (Str. pyo. A9604): 1 µg/mL
M.I.C. Ps. aeru. CarbR (Ps. aeru. CarbR): 16 µg/mL

half-life [1, 3]: 120 min
half-life [1, 4]: 168 min
U.R. [2]: 17
half-life ([2]; 20 mg/kg, IM/20): 15 min
AUC ([2]; blood, 20 mg/kg, IM/20): 11000 ng·h/mL
Cmax ([2]; blood, 20 mg/kg, IM/20, read-out: Cmax, IM/20): 24000 ng/mL
AUC ([2]; blood, PO, 50 mg/kg): 32000 ng·h/mL
Cmax ([2]; blood, PO, 50 mg/kg, read-out: Cmax, PO/50): 33000 ng/mL
half-life ([2]; PO, 50 mg/kg): 24 min
Compound: C[C@@H](N)[C@H]1C(=O)N2C(C(=O)O)=C(SCc3ccccn3)[C@H](C)[C@H]12 [Procedure 18, (5S,6R) 6-(1′R-Aminoethyl)-4R-methyl-3-[(pyridin-2-yl)methylthio]-7-oxo-1-azabicyclo[3.2.0]hept-2-ene-2-carboxylic Acid]
PD50, E. coli (E. coli): 11.20
PD50, S. pneu (S. pneu): 16.5
